Values of other authors as cited in US12064376B2, “Rho kinase inhibitor releasing implants and related methods of use” (priority 2020, dated 2024).

How the values were obtained:
[1] = tested on: Porcine corneal endothelial cells (CECs); settings: 10 μM Y-27632 or 2.5 μM H-1152, 2, 24 and 48 hours
[2] = tested on: rabbit model of corneal endothelial dysfunction; settings: 1 mM topical, 2 drops QID three days then TID seven days
[3] = tested on: monkey model of corneal endothelial cell damage
[4] = tested on: rabbit corneal endothelial damage model; settings: scrape model
failed descemetorhexis = settings: patient with failed descemetorhexis
[5] = tested on: human corneal endothelial cells (HCEC); settings: ripasudil 0.3 to 30 μM, 48 hours, HCEC in vitro
[6] = tested on: rabbit corneal endothelial damage model; settings: freeze model, topical 0.4% or 0.8% drops BID or QID
[7] = by 24 weeks, eleven patients, 1×10^6 human CECs per 300 μL with Y-27632
[8] = at 1 year, MCEC and ROCK inhibitor eyes

Cc1cncc2cccc(S(=O)(=O)N3CCCNC[C@@H]3C)c12 [H-1152]
cell morphology [1]: monolayer with polygonal structure and tight junctions | migration of cells from the scratch [1]: enhanced | corneal thickness versus controls [2]: less

C[C@@H](N)[C@H]1CC[C@H](C(=O)Nc2ccncc2)CC1 [Y-27632]
number of patients with >500 cells/mm^2 (bullous keratopathy; [7]): 11 | number of patients with >1000 cells/mm^2 (bullous keratopathy; [7]): 10 | adverse events (bullous keratopathy; eleven patients): One case of steroid induced intraocular pressure (IOP) and no other adverse events | corneal thickness (bullous keratopathy; in all but 1 case, corneas became clear): < 630 μm | preserving corneal clarity (Fuch's corneal dystrophy; Fuch's corneal dystrophy, eye drop): effective | corneal thickening (Fuch's corneal dystrophy; Fuch's patients): decrease | efficacy by severity of corneal endothelial dysfunction (Fuch's corneal dystrophy; mild (central edema) versus severe (diffuse edema)): effective in mild cases (central edema) of corneal endothelial dysfunction, but not severe (diffuse edema) | cell morphology [1]: monolayer with polygonal structure and tight junctions | migration of cells from the scratch [1]: enhanced | survival and engraftment of injected cultured endothelial cells ([3]; 5×10^5 CECs in 200 μl with ROCK inhibitor, intracameral): enhanced | adverse events ([3]; MCEC with concomitant ROCK inhibitor, intracameral injection): without adverse events such as glaucoma | corneal clarity [3, 8]: clear corneas | corneal endothelial cell density [3, 8]: 2000 cells/mm^2

C[C@H]1CNCCCN1S(=O)(=O)c1cccc2cncc(F)c12 [ripasudil]
treated eyes clear ([4]; day 14, control 0/6): 5/6 | corneal thickening ([4]; no change with control): ⅓ | outcome of case study (failed descemetorhexis): salvaged patient | DNA and endothelial cell proliferation [5]: significantly enhanced | corneal haze versus controls [6]: less hazy corneas | proliferation in treated eyes [6]: better in the ROCK inhibitor treated eyes in a dose dependent fashion | wound size versus controls [6]: smaller
